The source of these data is US20220218689A1, “T[…] COMPOSITIONS AND METHODS FOR USING THE SAME” (Saniona A/S, priority 2018, published 2022).

For data set [1] the following is noted: Astrup et al., 2008, Lancet 372: 1906-13; cited from earlier work.
Data set [2] in a line: In vitro skin flux study (Franz cell transdermal flux test). The class given is in vitro ADME, human. To be noted: free base; conclusion from the in vitro skin flux study. The source says: Human cadaver skin was used and epidermal layers (stratum corneum and epidermis) were separated from the full-thickness skin as skin membrane. Samples were die-cut with an arch punch to a final diameter of about 2.0 cm^2. The release liner was removed and the system was placed on top of the epidermis/stratum corneum with the drug adhesive layer facing the stratum corneum. Gentle pressure was applied to effect good contact between the adhesive layer and stratum corneum. The donor and receptor sides of the Franz cell were clamped together and the receptor solution containing a phosphate buffer at pH 6.5 was added to the Franz cell. The cells were kept at 33° C. for the duration of the experiment. Samples of the receptor solution were taken at regular intervals and the active agent concentration was measured by HPLC. The removed receptor solution was replaced with fresh solution to maintain the sink conditions. The flux was calculated from the slope of cumulative amounts of the drug in the receiver compartment versus time plot.
Transdermal delivery devices containing various formulations of (1 R,2 R,3 S,5 S)-3-(3,4-dichlorophenyl)-2-(methoxymethyl)-8-azabicyclo[3.2.1]octane (i.e., NS2359) are summarized in Table 1. An in vitro skin flux study was performed as described above with transdermal delivery devices having the formulations listed in Table 1. […]

Regarding `CCOC[C@@H]1[C@@H](c2ccc(Cl)c(Cl)c2)C[C@@H]2CC[C@H]1N2C` [Tesofensine, (1 R,2 R,3 S,5 S)-3-(3,4-dichlorophenyl)-2-(ethoxymethyl)-8-methyl-8-azabicyclo[3.2.1]octane], in data set [1], the Sagittal diameter entry is “significantly decreases” and the Waist circumference result is listed as “significantly decreases”. On to `COC[C@@H]1[C@@H](c2ccc(Cl)c(Cl)c2)C[C@@H]2CC[C@H]1N2` [NS2359, (1 R,2 R,3 S,5 S)-3-(3,4-dichlorophenyl)-2-(methoxymethyl)-8-azabicyclo[3.2.1]octane], for which the Transdermal deliverability entry in data set [2] is “can be delivered transdermally”.
